# Experiments:
# [1] = system: human thrombus; test: Screening of thrombus-binding activity of phages by ELISA; settings: for dose-dependent thrombus-specific binding by ELISA: BSA binding as negative control, FIG. 1C/1D; for binding affinity to human thrombus (ELISA, absorption at 450 nm): screening of 72 phage clones from the fifth round of biopanning, FIG. 1B
# Description: A human thrombus was isolated and collected from a cadaver about 20 years ago in a course of fresh cadaver dissection and partial thrombus was grounded to powder and then incubated with 2×10^11 phages in 1% BSA in PBS at 4° C. for 1 hour. After washing with PBS, the bound phages were eluted from the thrombus tissue and amplified using E. coli for subsequent rounds of selection. The eluted and amplified phages were titrated on lysogeny broth (LB) medium plates containing isopropyl β-D-1-thiogalactopyranoside (IPTG) and X-Gal (5-bromo-4-chloro-3-indolyl-D-galactoside). The biopanning steps described above were repeated five times before phage clones were randomly selected for thrombus ELISA screening.
# The grinded human thrombus tissue or BSA in coating buffer was used to coat 96-well ELISA plates overnight. After blocking and washing, the selected phage clones were added and incubated for 1 hour at room temperature (RT). After washing with PBS, each well was probed with horseradish peroxidase (HRP)-conjugated mouse anti-M13 antibodies (1:2000 dilution) for 1 hour at RT. After repeating the wash step, the plates were developed with ELISA substrate solution. The reaction was terminated with 3N hydrochloric acid, and the absorbance of the colorimetric substrate was analyzed using a microplate reader at 450 nm.
# [2] = system: induced thrombus; test: In vivo infrared fluorescence imaging of HILYTE FLUOR 750-conjugated protein at the thrombus; set-up: species or system mice; settings: FIG. 5B
# Description: Fifty micrograms of tPA or targeting peptide-tPA fusion and 4 nM HILYTE FLUOR™ 750 were mixed for 45 minutes at RT to promote conjugation. The solution was dialyzed with a 3.5-kDa-cut-off membrane overnight at 4° C. Time-course fluorescence measurements were made in mice with thrombi after intravenous injection of HILYTE FLUOR™ 750-labeled tPA or targeting peptide-tPA fusion protein. Fluorescence images were captured using an imaging system. Accumulation of HILYTE FLUOR™ 750 in the thrombus was quantified by subtracting background florescence intensity.
# Fifty micrograms of thrombus affinity peptide-tPA was mixed with 4 nM HILYTE FLUOR™ 750 and incubated for 45 minutes at RT in the dark to promote the conjugation. Dialysis was performed with a 3.5-kDa-cut-off membrane overnight at 4° C. to remove excess dye. A time-course of infrared fluorescence images were acquired after intravenous injection of HILYTE FLUOR™ 750-conjugated fusion protein or tPA. Infrared fluorescence images of HILYTE FLUOR™ 750-conjugated protein were captured in living using an imaging system. Accumulation of HILYTE FLUOR™ 750 fluorescence signal in the induced thrombus was quantified and analyzed by software.
dose-dependent thrombus-specific binding by ELISA [1],"binding affinity to human thrombus (ELISA, absorption at 450 nm) [1]",Substance,"time after injection at which accumulation at the induced thrombus was seen ([2]; dye-conjugated protein, i.v., mice with induced thrombus)",decrease of fluorescence intensity at the induced thrombus ([2]; in 1 hour after i.v. injection)
best thrombus-specific binding,relatively high binding affinity,FQNEWFHNFLHD [PC30],,
best thrombus-specific binding,relatively high binding affinity,LQKNPFDLVQIL [PC66],,
best thrombus-specific binding,relatively high binding affinity,TEANLSSWVFAR [PC39],,
,,"tPA: human recombinant tissue plasminogen activator without thrombus binding peptide, used as control",≤ 5 min,50%
